# Patent publication US7378082B1, “Method for treating allergic rhinitis without adverse effects” (Inspire Pharmaceuticals, Inc., priority 2007, dated 2008)
# Conditions: intranasal 0.05% or 0.1% nasal spray; after first dose (Day 1) and last dose (Day 14); 43 subjects
# Experimental: Each group started with approximately 190 subjects.
# Plasma epinastine levels following intranasal administration were determined.
structure (smiles),measurement,value
"NC1=NCC2c3ccccc3Cc3ccccc3N12 (stereo not shown) [epinastine, 3-amino-9,13b-dihydro-1H-dibenz-[c,-f]imidazol[1,5-a]azepine]",Plasma concentrations of epinastine,< 1 ng/mL
